The compounds below were run against LRRK2 (Homo sapiens (Human), UniProt Q5S007, G2019S) (assay: In Vitro LRRK2 LabChip Assay). Conditions: Table 4.
Chain of LRRK2 (Q5S007 970-2527 G2019S limits assumed): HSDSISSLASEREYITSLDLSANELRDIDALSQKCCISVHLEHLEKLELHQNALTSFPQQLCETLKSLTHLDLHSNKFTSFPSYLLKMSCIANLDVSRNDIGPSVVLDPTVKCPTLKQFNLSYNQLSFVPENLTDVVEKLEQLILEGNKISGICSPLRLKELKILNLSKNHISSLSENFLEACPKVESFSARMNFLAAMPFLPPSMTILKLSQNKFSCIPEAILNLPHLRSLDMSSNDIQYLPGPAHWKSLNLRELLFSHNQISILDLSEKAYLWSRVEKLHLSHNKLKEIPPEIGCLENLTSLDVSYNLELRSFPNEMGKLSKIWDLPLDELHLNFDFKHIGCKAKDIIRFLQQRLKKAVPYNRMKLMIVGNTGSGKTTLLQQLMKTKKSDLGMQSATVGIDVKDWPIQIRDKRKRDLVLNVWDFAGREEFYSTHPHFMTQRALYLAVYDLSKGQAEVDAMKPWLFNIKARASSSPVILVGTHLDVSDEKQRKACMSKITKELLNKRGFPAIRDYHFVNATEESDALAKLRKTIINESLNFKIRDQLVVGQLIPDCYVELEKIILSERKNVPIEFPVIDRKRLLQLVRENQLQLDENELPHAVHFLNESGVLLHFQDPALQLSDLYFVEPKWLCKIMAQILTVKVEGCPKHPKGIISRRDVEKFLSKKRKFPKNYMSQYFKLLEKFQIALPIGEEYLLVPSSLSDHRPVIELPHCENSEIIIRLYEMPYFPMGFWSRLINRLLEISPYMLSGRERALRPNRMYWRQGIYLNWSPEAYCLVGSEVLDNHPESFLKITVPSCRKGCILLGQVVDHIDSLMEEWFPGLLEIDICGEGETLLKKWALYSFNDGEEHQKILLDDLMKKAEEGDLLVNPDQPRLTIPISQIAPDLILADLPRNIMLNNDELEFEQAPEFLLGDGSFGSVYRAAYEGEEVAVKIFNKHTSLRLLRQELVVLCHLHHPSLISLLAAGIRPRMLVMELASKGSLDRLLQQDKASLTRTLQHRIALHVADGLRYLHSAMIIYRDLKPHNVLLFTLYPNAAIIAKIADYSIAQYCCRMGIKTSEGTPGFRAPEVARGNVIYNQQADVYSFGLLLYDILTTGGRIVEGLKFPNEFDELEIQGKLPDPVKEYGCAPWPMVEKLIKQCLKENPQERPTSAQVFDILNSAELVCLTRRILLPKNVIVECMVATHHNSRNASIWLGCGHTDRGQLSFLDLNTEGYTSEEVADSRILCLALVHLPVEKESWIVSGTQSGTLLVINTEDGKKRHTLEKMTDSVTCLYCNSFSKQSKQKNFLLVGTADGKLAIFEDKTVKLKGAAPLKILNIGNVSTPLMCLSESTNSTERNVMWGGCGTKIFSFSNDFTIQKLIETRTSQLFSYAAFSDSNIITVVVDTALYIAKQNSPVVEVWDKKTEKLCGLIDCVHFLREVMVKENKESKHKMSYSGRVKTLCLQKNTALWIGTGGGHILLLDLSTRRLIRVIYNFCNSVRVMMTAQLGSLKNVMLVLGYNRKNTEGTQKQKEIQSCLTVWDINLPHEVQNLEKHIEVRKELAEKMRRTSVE
Assay type: biochemical
Method in brief: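 Phosphorylated and unphosphorylated peptides were separated by capillary electrophoresis and quantified by fluorescence. Ki came from a tight-binding equation, given in μM.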
In the case of `CNc1nc(Nc2ccc(C(=O)N3CCOCC3)cc2OC2CC2)ncc1Cl` [Example 217, [4-(5-Chloro-4-methylamino-pyrimidin-2-ylamino)-3-cyclopropoxy-phenyl]-morpholin-4-yl-methanone], the Ki is reported as 2 nM.
For `COc1nc(Nc2ccc(C(=O)N3CCOCC3)cc2OC2CC2)ncc1Br` [Example 218, [4-(5-Bromo-4-methoxy-pyrimidin-2-ylamino)-3-cyclopropoxy-phenyl]-morpholin-4-yl-methanone], the Ki was 2.5 nM.
Compound `COc1cc(C(=O)N2CCOCC2)ccc1Nc1ncc(Cl)c(NCCS(C)(=O)=O)n1` [Example 219, {4-[5-Chloro-4-(2-methanesulfonyl-ethylamino)-pyrimidin-2-ylamino]-3-methoxy-phenyl}-morpholin-4-yl-methanone] has a Ki of 26.4 nM.
`CNc1nc(Nc2cc(OC)c(CC(=O)N3CCOCC3)cc2OC)ncc1Br` [Example 220, 2-[4-(5-Bromo-4-methylamino-pyrimidin-2-ylamino)-2,5-dimethoxy-phenyl] 1-morpholin-4-yl-ethanone] was tested, and the Ki was 3.4 nM.
Compound `CNc1nc(Nc2cc(OC)c(CC(=O)N3CCOCC3)cc2OC)ncc1Cl` [Example 221, 2-[4-(5-Chloro-4-methylamino-pyrimidin-2-ylamino)-2,5-dimethoxy-phenyl] 1-morpholin-4-yl-ethanone] has a Ki of 8.7 nM.
In the case of `CNc1nc(Nc2ccc(CC(=O)N3CCOCC3)cc2OC)ncc1Cl` [Example 222, 2-[4-(5-Chloro-4-methylamino-pyrimidin-2-ylamino)-3-methoxy-phenyl]-1-morpholin-4-yl-ethanone], the Ki is reported as 9 nM.
`CNc1nc(Nc2ccc(CC(=O)N3CCOCC3)cc2OC)ncc1C(F)(F)F` [Example 223, 2-[3-Methoxy-4-(4-methylamino-5-trifluoromethyl-pyrimidin-2-ylamino)-phenyl]-1-morpholin-4-yl-ethanone] was tested, and the Ki was 5.2 nM.
In the case of `COc1cc(CC(=O)N2CCOCC2)ccc1Nc1ncc(Br)c(OC)n1` [Example 226, 2-[4-(5-Bromo-4-methoxy-pyrimidin-2-ylamino)-3-methoxy-phenyl]-1-morpholin-4-yl-ethanone], the Ki is reported as 5.6 nM.
Compound `CNc1nc(Nc2cc(OC)c(CC(=O)N3CCOCC3)cc2OC)ncc1C(F)(F)F` [Example 227, 2-[2,5-Dimethoxy-4-(4-methylamino-5-trifluoromethyl-pyrimidin-2-ylamino)-phenyl]-1-morpholin-4-yl-ethanone] has a Ki of 3.7 nM.
With `CNc1nc(Nc2cc(OC)c(C(=O)NCCCN)cc2Cl)ncc1Cl` [Example 228, N-(3-Amino-propyl)-5-chloro-4-(5-chloro-4-methylamino-pyrimidin-2-ylamino)-2-methoxy-benzamide] the Ki was 3.8 nM.
Work on `COCCNc1nc(Nc2ccc(C(=O)N3CCOCC3)cc2OC)ncc1Br` [Example 229, {4-[5-Bromo-4-(2-methoxy-ethylamino)-pyrimidin-2-ylamino]-3-methoxy-phenyl}-morpholin-4-yl-methanone] yielded a Ki of 4.1 nM.
`COc1cc(C(=O)N2CCOCC2)ccc1Nc1ncc(Cl)c(NCC(C)OC)n1` (centres unmarked) [Example 230, {4-[5-Chloro-4-(2-methoxy-propylamino)-pyrimidin-2-ylamino]-3-methoxy-phenyl}-morpholin-4-yl-methanone] was tested, and the Ki was 9.6 nM.
Work on `CNc1nc(Nc2ccc(C(=O)N3CCOCC3)cc2C)ncc1Cl` [Example 232, (4-(5-chloro-4-(methylamino)pyrimidin-2-ylamino)-3-methylphenyl) (morpholino) methanone] yielded a Ki of 7.4 nM.
`CNc1nc(Nc2ccc(C(=O)N3CCC(O)CC3)cc2C)ncc1Cl` [Example 233, (4-(5-chloro-4-(methylamino)pyrimidin-2-ylamino)-3-methylphenyl)(4-hydroxypiperidin-1-yl)methanone] showed a Ki of 6.1 nM.
With `CCNc1nc(Nc2ccc(C(=O)N3CCOCC3)cc2OC(F)(F)F)ncc1C(F)(F)F` [Example 234, (4-(4-(ethylamino)-5-(trifluoromethyl)pyrimidin-2-ylamino)-3-(trifluoromethoxy)phenyl)(morpholino) methanone] the Ki was 3.2 nM.
Compound `CNc1nc(Nc2ccc(C(=O)N3CCOCC3)cc2OC(F)(F)F)ncc1C(F)(F)F` [Example 235, (4-(4-(methylamino)-5-(trifluoromethyl)pyrimidin-2-ylamino)-3-(trifluoromethoxy)phenyl)(morpholino) methanone] has a Ki of 11.2 nM.
Work on `[2H]C1([2H])OC([2H])([2H])C([2H])([2H])N(C(=O)c2cc(Cl)c(Nc3ncc(C(F)(F)F)c(NC)n3)cc2OC)C1([2H])[2H]` [Example 236, (5-chloro-2-methoxy-4-(4-(methylamino)-5-(trifluoromethyl)pyrimidin-2-ylamino)phenyl) (perdeuteromorpholino) methanone] yielded a Ki of 4.2 nM.
Work on `CNc1nc(Nc2cc(OC)c(C(=O)N3CCOCC3)cc2F)ncc1C(F)(F)F` [Example 237, (5-fluoro-2-methoxy-4-(4-(methylamino)-5-(trifluoromethyl)pyrimidin-2-ylamino)phenyl) (morpholino)methanone] yielded a Ki of 4.8 nM.
`CCNc1nc(Nc2cc(OC)c(C(=O)N3CCOCC3)cc2F)ncc1C(F)(F)F` [Example 238, (4-(4-(ethylamino)-5-(trifluoromethyl)pyrimidin-2-ylamino)-5-fluoro-2-methoxyphenyl) (morpholino) methanone] gave a Ki of 1.4 nM.
For `CNc1nc(Nc2cc(F)c(C(=O)N3CCOCC3)cc2OC)ncc1C(F)(F)F` [Example 239, [2-Fluoro-5-methoxy-4-(4-methylamino-5-trifluoromethyl-pyrimidin-2-ylamino)-phenyl]-moipholin-4-yl-methanone], the Ki was 2.9 nM.
Compound `CCNc1nc(Nc2cc(F)c(C(=O)N(C)C)cc2OC)ncc1C#N` [Example 240, 4-(5-Cyano-4-ethylamino-pyrimidin-2-ylamino)-2-fluoro-5-methoxy-N,N-dimethyl-benzamide] has a Ki of 9.8 nM.
`CCNc1nc(Nc2ccc(C(=O)N3CCOCC3)c(F)c2OC)ncc1C(F)(F)F` [Example 241, (4-(4-(ethylamino)-5-(trifluoromethyl)pyrimidin-2-ylamino)-2-fluoro-3-methoxyphenyl) (morpholino)methanone] gave a Ki of 1.8 nM.
With `CCNc1nc(Nc2ccc(C(=O)N3C[C@@H]4C[C@H]3CO4)c(F)c2OC)ncc1C(F)(F)F` [Example 242, (1S,4S)-2-oxa-5-azabicyclo[2.2.1] heptan-5-yl(4-(4-(ethylamino)-5-(trifluoromethyl)pyrimidin-2-ylamino)-2-fluoro-3-methoxyphenyl) methanone] the Ki was 2.8 nM.
For `CNc1nc(Nc2ccc(C(=O)N3C[C@H](F)[C@@H](F)C3)cc2OC)ncc1C#N` [Example 245, 2-(4-((3S,4S)-3,4-difluoropyrrolidine-1-carbonyl)-2-methoxyphenylamino)-4-(methylamino) pyrimidine-5-carbonitrile], the Ki was 13.5 nM.
Work on `CNc1nc(Nc2cc(OC)c(C(=O)N3CCC(OC)C3)cc2Cl)ncc1C(F)(F)F` (centres unmarked) [Example 246, (5-chloro-2-methoxy-4-(4-(methylamino)-5-(trifluoromethyl)pyrimidin-2-ylammo)phenyl)(3-methoxypyrrolidin-1-yl)methanone] yielded a Ki of 5 nM.
Work on `CNc1nc(Nc2cc(F)c(C(=O)N3CCC(OC)C3)cc2OC)ncc1C(F)(F)F` (centres unmarked) [Example 247, (2-fluoro-5-methoxy-4-(4-(methylamino)-5-(trifluoromethyl)pyrimidin-2-ylamino)phenyl)(3-methoxypyrrolidin-1-yl)methanone] yielded a Ki of 2.7 nM.

— patent US8802674B2, “Aminopyrimidine derivatives as LRRK2 modulators” (Genentech, Inc., priority 2011, dated 2014)
